Reference: US12643895B2, “Heteroaryl-substituted pyrazolo-pyridine protein kinase inhibitors for promoting liver regeneration or reducing or preventing hepatocyte death” (HepaRegeniX GmbH, priority 2019, dated 2026)

Experiments:
Assay type in all cases: biochemical
BRaf = target: T1, BRaf (Homo sapiens, UniProt P15056); assay: 33PanQinase radiometric kinase assay, BRaf (off-target); conditions: ratio IC50(off-target)/IC50(MKK4)
T1 construct: purchased ProQinase GmbH, Freiburg, Germany (assay service)
T1 sequence (P15056 whole entry): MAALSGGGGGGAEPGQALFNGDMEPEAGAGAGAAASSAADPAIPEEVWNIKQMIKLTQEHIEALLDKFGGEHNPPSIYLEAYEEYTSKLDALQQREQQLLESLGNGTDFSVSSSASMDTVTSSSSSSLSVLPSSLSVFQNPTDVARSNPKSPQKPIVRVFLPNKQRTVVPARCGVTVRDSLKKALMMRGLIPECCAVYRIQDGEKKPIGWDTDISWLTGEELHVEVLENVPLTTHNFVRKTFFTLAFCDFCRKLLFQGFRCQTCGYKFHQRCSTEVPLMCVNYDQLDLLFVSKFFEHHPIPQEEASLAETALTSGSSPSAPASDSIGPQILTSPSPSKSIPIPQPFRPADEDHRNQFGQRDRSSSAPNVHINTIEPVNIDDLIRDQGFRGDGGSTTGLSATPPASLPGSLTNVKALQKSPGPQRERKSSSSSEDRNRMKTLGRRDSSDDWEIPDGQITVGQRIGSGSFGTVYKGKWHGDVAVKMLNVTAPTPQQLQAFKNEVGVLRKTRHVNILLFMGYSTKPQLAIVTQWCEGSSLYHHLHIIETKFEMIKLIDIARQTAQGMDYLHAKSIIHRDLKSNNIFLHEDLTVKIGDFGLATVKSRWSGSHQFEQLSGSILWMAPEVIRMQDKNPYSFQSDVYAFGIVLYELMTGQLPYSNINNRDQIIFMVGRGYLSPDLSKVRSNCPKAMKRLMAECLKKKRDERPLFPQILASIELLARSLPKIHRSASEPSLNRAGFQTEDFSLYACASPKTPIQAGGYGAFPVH
Experimental: (§1) The kinase activities of the compounds of the invention were measured using the 33PanQinase® Assay Service provided by ProQinase GmbH, Freiburg, Germany. Details of the assay conditions are disclosed on the website of ProQinase (https://www.proqinase.com/products-services-biochemical-assay-services/kinase-assays). In brief, all kinase assays were performed in 96-well FlashPlates™ from PerkinElmer (Boston, MA, USA) in a 50 μl reaction volume. The reaction cocktail was pipetted in four steps in the following order: • 20 μl of assay buffer (standard buffer) • 5 μl of ATP solution (in H2O) • 5 μl of test compound (in 10% DMSO) • 20 μl enzyme/substrate mix
(§2) The reaction cocktails were incubated at 30° C. for 60 minutes. The reaction is stopped with 50 μl of 2% (v/v) H3PO4, plates were aspirated and washed two times with 200 μl 0.9% (w/v) NaCl. Incorporation of ^33Pi was determined with a microplate scintillation counter (Microbeta, Wallac).
(§3) All assays were performed with a BeckmanCoulter/SAGIAN™ Core System.
(§4) In case of single concentration assays, the potency of the test compound is expressed as % residual activity. […] The fitting method used was a least-squares fit.
(§5) Selectivity of test compounds against BRaf, JNK1 and MKK7, altogether denominated as off-targets was calculated by the ratio of IC50 (off-target)/IC50 (MKK4) and categorized as follows: […]

JNK1 = target: T2, JNK1 (Homo sapiens, UniProt P45983); assay: 33PanQinase radiometric kinase assay, JNK1 (off-target); conditions: ratio IC50(off-target)/IC50(MKK4)
T2 construct: purchased ProQinase GmbH, Freiburg, Germany (assay service)
T2 sequence (P45983 whole entry): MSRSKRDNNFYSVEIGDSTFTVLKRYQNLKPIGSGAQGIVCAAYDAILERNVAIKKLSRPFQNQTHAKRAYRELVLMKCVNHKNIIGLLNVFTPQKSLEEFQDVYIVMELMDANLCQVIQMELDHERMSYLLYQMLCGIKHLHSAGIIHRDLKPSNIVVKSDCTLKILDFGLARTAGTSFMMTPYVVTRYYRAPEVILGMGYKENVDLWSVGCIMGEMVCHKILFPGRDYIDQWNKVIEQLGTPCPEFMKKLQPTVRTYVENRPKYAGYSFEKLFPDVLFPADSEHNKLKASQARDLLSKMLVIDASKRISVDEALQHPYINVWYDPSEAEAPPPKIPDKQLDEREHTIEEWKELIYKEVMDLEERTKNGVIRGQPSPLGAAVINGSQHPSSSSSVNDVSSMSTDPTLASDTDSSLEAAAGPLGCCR
Experimental: as §1, §2, §3, §4, §5

MKK4 = target: T3, MKK4 (Homo sapiens, UniProt P45985); assay: 33PanQinase radiometric kinase assay, MKK4; conditions: category based on IC50-values; ATP at apparent Km; read-out: Potency MKK4
T3 construct: purchased ProQinase GmbH, Freiburg, Germany (assay service)
T3 sequence (P45985 1-399): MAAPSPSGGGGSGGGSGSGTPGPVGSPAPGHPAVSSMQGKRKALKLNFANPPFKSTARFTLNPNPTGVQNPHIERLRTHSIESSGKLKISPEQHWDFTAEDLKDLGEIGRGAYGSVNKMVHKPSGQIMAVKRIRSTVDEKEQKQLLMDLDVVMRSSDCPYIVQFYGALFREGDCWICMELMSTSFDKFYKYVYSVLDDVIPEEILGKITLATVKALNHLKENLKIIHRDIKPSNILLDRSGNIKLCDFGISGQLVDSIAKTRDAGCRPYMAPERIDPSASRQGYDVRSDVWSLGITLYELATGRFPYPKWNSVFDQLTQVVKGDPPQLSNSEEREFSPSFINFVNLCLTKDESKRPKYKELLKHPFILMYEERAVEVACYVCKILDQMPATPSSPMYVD
Experimental: as §1, §2, §3, §4

MKK7 = target: T4, MKK7 (Homo sapiens, UniProt O14733); assay: 33PanQinase radiometric kinase assay, MKK7 (off-target); conditions: ratio IC50(off-target)/IC50(MKK4)
T4 construct: purchased ProQinase GmbH, Freiburg, Germany (assay service)
T4 sequence (O14733 1-419): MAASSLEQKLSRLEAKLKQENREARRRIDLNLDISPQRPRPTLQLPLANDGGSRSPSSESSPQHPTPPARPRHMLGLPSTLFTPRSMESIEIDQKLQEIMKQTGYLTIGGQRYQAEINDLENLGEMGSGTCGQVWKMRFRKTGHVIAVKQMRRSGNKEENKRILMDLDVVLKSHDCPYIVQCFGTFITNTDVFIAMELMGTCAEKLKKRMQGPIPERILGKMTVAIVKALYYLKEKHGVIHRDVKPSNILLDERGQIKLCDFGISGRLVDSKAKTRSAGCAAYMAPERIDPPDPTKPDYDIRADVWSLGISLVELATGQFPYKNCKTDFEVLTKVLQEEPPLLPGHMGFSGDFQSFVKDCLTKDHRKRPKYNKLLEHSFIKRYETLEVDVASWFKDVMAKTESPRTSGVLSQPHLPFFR
Experimental: as §1, §2, §3, §4, §5

SMILES | Selectivity Braf (BRaf) | Selectivity JNK1 (JNK1) | IC50 (MKK4) [nM] | Selectivity MKK7 (MKK7)
O=C(c1c(F)ccc(NS(=O)(=O)Cc2ccccc2)c1F)c1n[nH]c2ncc(-c3cnc(C4CC4)nc3)cc12 [Example 1, N-(3-(5-(2-cyclopropylpyrimidin-5-yl)-1H-pyrazolo[3,4-b]pyridine-3-carbonyl)-2,4-difluorophenyl)-1-phenylmethanesulfonamide] | + (10 ≥ IC50(off-target)/IC50(MKK4) > 3) | ◯ | 100 to 1000 | +++ (IC50(off-target)/IC50(MKK4) > 100)
CS(=O)(=O)Nc1c(F)ccc(C(=O)c2n[nH]c3ncc(-c4ccc(Cl)cc4)cc23)c1F [Example 2, N-(3-(5-(4-chlorophenyl)-1H-pyrazolo[3,4-b]pyridine-3-carbonyl)-2,6-difluorophenyl)methanesulfonamide] | +++ (IC50(off-target)/IC50(MKK4) > 100) | +++ (IC50(off-target)/IC50(MKK4) > 100) | < 100 | +++ (IC50(off-target)/IC50(MKK4) > 100)
CCS(=O)(=O)Nc1c(F)ccc(C(=O)c2n[nH]c3ncc(-c4ccc(Cl)cc4)cc23)c1F [Example 3, N-(3-(5-(4-chlorophenyl)-1H-pyrazolo[3,4-b]pyridine-3-carbonyl)-2,6-difluorophenyl)ethanesulfonamide] | +++ (IC50(off-target)/IC50(MKK4) > 100) | ++ (100 ≥ IC50(off-target)/IC50(MKK4) > 10) | 100 to 1000 | +++ (IC50(off-target)/IC50(MKK4) > 100)
CCOC(=O)c1ccc(-c2cnc3[nH]nc(C(=O)c4ccc(F)c(NS(C)(=O)=O)c4F)c3c2)cc1 [Example 4, Ethyl 4-(3-(2,4-difluoro-3-(methylsulfonamido)benzoyl)-1H-pyrazolo[3,4-b]pyridin-5-yl)benzoate] | +++ (IC50(off-target)/IC50(MKK4) > 100) | ++ (100 ≥ IC50(off-target)/IC50(MKK4) > 10) | 100 to 1000 | +++ (IC50(off-target)/IC50(MKK4) > 100)
COC(=O)c1ccc(-c2cnc3[nH]nc(C(=O)c4ccc(F)c(NS(C)(=O)=O)c4F)c3c2)cn1 [Example 5, Methyl 5-(3-(2,4-difluoro-3-(methylsulfonamido)benzoyl)-1H-pyrazolo[3,4-b]pyridin-5-yl)picolinate] | +++ (IC50(off-target)/IC50(MKK4) > 100) | + (10 ≥ IC50(off-target)/IC50(MKK4) > 3) | 1000 to 10000 | ++ (100 ≥ IC50(off-target)/IC50(MKK4) > 10)
CCCS(=O)(=O)Nc1c(F)ccc(C(=O)c2n[nH]c3ncc(-c4cncnc4)cc23)c1F [Example 6, N-(2,6-difluoro-3-(5-(pyrimidin-5-yl)-1H-pyrazolo[3,4-b]pyridine-3-carbonyl)phenyl)propane-1-sulfonamide] | +++ (IC50(off-target)/IC50(MKK4) > 100) | +++ (IC50(off-target)/IC50(MKK4) > 100) | 100 to 1000 | +++ (IC50(off-target)/IC50(MKK4) > 100)
CCCS(=O)(=O)Nc1c(F)ccc(C(=O)c2n[nH]c3ncc(-c4cnc(C)nc4)cc23)c1F [Example 7, N-(2,6-difluoro-3-(5-(2-methylpyrimidin-5-yl)-1H-pyrazolo[3,4-b]pyridine-3-carbonyl)phenyl)propane-1-sulfonamide] | +++ (IC50(off-target)/IC50(MKK4) > 100) | +++ (IC50(off-target)/IC50(MKK4) > 100) | < 100 | +++ (IC50(off-target)/IC50(MKK4) > 100)
CCCS(=O)(=O)Nc1c(F)ccc(C(=O)c2n[nH]c3ncc(-c4cnc(C(=O)O)nc4)cc23)c1F [Example 8, 5-(3-(2,4-difluoro-3-(propylsulfonamido)benzoyl)-1H-pyrazolo[3,4-b]pyridin-5-yl)pyrimidine-2-carboxylic acid] | +++ (IC50(off-target)/IC50(MKK4) > 100) | +++ (IC50(off-target)/IC50(MKK4) > 100) | < 100 | ++ (100 ≥ IC50(off-target)/IC50(MKK4) > 10)
CCCS(=O)(=O)Nc1c(F)ccc(C(=O)c2n[nH]c3ncc(-c4cnc(C#N)nc4)cc23)c1F [Example 9, N-(3-(5-(2-cyanopyrimidin-5-yl)-1H-pyrazolo[3,4-b]pyridine-3-carbonyl)-2,6-difluorophenyl)propane-1-sulfonamide] | ++ (100 ≥ IC50(off-target)/IC50(MKK4) > 10) | ++ (100 ≥ IC50(off-target)/IC50(MKK4) > 10) | 100 to 1000 | ++ (100 ≥ IC50(off-target)/IC50(MKK4) > 10)
CCCS(=O)(=O)Nc1c(F)ccc(C(=O)c2n[nH]c3ncc(-c4cnc(-c5nnn[nH]5)nc4)cc23)c1F [Example 10, N-(3-(5-(2-(1H-tetrazol-5-yl)pyrimidin-5-yl)-1H-pyrazolo[3,4-b]pyridine-3-carbonyl)-2,6-difluorophenyl)propane-1-sulfonamide] | +++ (IC50(off-target)/IC50(MKK4) > 100) | +++ (IC50(off-target)/IC50(MKK4) > 100) | < 100 | ++ (100 ≥ IC50(off-target)/IC50(MKK4) > 10)
CCCS(=O)(=O)Nc1c(F)ccc(C(=O)c2n[nH]c3ncc(-c4cnc(Cl)nc4)cc23)c1F [Example 12, N-(3-(5-(2-chloropyrimidin-5-yl)-1H-pyrazolo[3,4-b]pyridine-3-carbonyl)-2,6-difluorophenyl)propane-1-sulfonamide] | +++ (IC50(off-target)/IC50(MKK4) > 100) | +++ (IC50(off-target)/IC50(MKK4) > 100) | 100 to 1000 | +++ (IC50(off-target)/IC50(MKK4) > 100)
CCCS(=O)(=O)Nc1c(F)ccc(C(=O)c2n[nH]c3ncc(-c4cnc(O)nc4)cc23)c1F [Example 16, N-(2,6-difluoro-3-(5-(2-hydroxypyrimidin-5-yl)-1H-pyrazolo[3,4-b]pyridine-3-carbonyl)phenyl)propane-1-sulfonamide] | +++ (IC50(off-target)/IC50(MKK4) > 100) | +++ (IC50(off-target)/IC50(MKK4) > 100) | < 100 | +++ (IC50(off-target)/IC50(MKK4) > 100)
CCCS(=O)(=O)Nc1c(F)ccc(C(=O)c2n[nH]c3ncc(-c4ccncc4Cl)cc23)c1F [Example 17, N-(3-(5-(3-chloropyridin-4-yl)-1H-pyrazolo[3,4-b]pyridine-3-carbonyl)-2,6-difluorophenyl)propane-1-sulfonamide] | +++ (IC50(off-target)/IC50(MKK4) > 100) | +++ (IC50(off-target)/IC50(MKK4) > 100) | < 100 | +++ (IC50(off-target)/IC50(MKK4) > 100)
CCCS(=O)(=O)Nc1c(F)ccc(C(=O)c2n[nH]c3ncc(-c4ccncc4C)cc23)c1F [Example 18, N-(2,6-difluoro-3-(5-(3-methylpyridin-4-yl)-1H-pyrazolo[3,4-b]pyridine-3-carbonyl)phenyl)propane-1-sulfonamide] | +++ (IC50(off-target)/IC50(MKK4) > 100) | +++ (IC50(off-target)/IC50(MKK4) > 100) | < 100 | +++ (IC50(off-target)/IC50(MKK4) > 100)
CCCS(=O)(=O)Nc1c(F)ccc(C(=O)c2n[nH]c3ncc(-c4ccc(C(C)(C)C)cc4)cc23)c1F [Example 19, N-(3-(5-(4-(tert-butyl)phenyl)-1H-pyrazolo[3,4-b]pyridine-3-carbonyl)-2,6-difluorophenyl)propane-1-sulfonamide] | +++ (IC50(off-target)/IC50(MKK4) > 100) | ++ (100 ≥ IC50(off-target)/IC50(MKK4) > 10) | 100 to 1000 | +++ (IC50(off-target)/IC50(MKK4) > 100)
